Experimental findings from patent US20130281445A1 (priority 2011, published 2013) are described below.

One may read the IC50 as the point on the concentration scale where inhibition reaches its midpoint.

Where only a bound is given, the exact number is not on record here.

For the first test, the target named is T1, Choline Kinase alpha enzyme (Homo sapiens, UniProt P35790).
T1 construct: hChoKα1(M1-V457) (NP_001268); GST (N); made in house; host or cells: E. coli BL21(DE3)
T1 sequence (P35790 whole entry): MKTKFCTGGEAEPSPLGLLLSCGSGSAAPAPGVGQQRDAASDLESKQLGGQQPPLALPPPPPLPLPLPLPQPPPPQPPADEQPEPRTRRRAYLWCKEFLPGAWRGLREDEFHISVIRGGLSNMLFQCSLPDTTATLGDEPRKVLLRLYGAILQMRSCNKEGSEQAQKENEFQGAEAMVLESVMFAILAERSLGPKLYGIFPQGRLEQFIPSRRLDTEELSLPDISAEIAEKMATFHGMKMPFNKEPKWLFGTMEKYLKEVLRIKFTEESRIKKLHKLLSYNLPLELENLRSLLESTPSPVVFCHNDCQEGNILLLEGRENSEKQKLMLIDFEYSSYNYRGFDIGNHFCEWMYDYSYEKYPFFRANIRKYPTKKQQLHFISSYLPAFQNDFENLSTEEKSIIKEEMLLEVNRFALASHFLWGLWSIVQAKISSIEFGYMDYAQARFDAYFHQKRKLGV
The test is described as follows: Choline Kinase Alpha Inhibition Assay (coupled NADH absorbance). In kind it is biochemical.
Conditions: not given
As to the method: An assay buffer solution was prepared which consisted of 100 mM Tris-HCl (pH 7.5), 100 mM KCl, and 10 mM MgCl2. An enzyme buffer containing reagents to final assay concentrations of 290 μM NADH, 2.4 mM phosphoenolpyruvate, 60 μg/mL pyruvate kinase, 20 μg/mL lactate dehydrogenase, 200 μM choline chloride substrate and 20 nM Choline Kinase alpha enzyme was prepared in assay buffer. To 32 μL of this enzyme buffer, in a 96 well plate, was added 2 μL of VRT stock solution in DMSO. The mixture was allowed to equilibrate for 10 mins at 25° C. The enzyme reaction was initiated by the addition of 32 μL stock ATP solution prepared in assay buffer to a final assay concentration of 400 μM. Initial rate data was determined from the rate of change of absorbance at 340 nm (corresponding to stoichiometric consumption of NADH) using a Molecular Devices Spectramax plate reader (Sunnyvale, Calif.) over 15 mins at 25° C. For each IC50 determination, 12 data points covering the VRT concentration range of 0-100 μM were obtained in duplicate (DMSO stocks were prepared from an initial 10 mM VRT stock with subsequent 1:2.5 serial dilutions). IC50 values were calculated from initial rate data using the Prism software package (Prism 4.0a, Graphpad Software, San Diego, Calif.).
hChoKα1(M1-V457) (NP_001268) was codon optimized for E. coli and cloned into a modified pGEX-2T vector. Recombinant GST-tagged ChoKα1 protein was produced in E. coli strain BL21(DE3). After growing cell cultures at 37° C. until the OD600=1, the cultures were induced with 1 mM IPTG for 16 h at 30° C. and the cells were harvested as a pellet (8500 rpm, 4° C., 20 min). The protein was purified using glutathione affinity purification followed by size exclusion via Superdex-200 26/60 (GE Healthcare). See Malito, Enrico et. al., “Journal of Molecular Biology”, Volume 364, Issue 2, pages 136-151 (November 2006).
Take `CN(C)c1ccc(C(=O)C2CN3CCC2CC3)cc1` (stereo not drawn) [Compound I-1, (4-dimethylaminophenyl)-quinuclidin-3-yl-methanone]: the IC50 is < 0.1 µM.
On to `O=C(c1ccc(N2CCCC2)cc1)C1CN2CCC1CC2` (stereo not drawn) [Compound I-3, (4-pyrrolidin-1-ylphenyl)-quinuclidin-3-yl-methanone], for which the IC50 was < 0.1 µM.
The same measure, in the same setting: the figure for `CN1CCOc2cc(C(=O)C3CN4CCC3CC4)ccc21` (stereo not drawn) [Compound I-5] is < 0.1 µM; for `O=C(c1ccc(-c2ccccc2)cc1)C1CN2CCC1CC2` (stereo not drawn) [Compound I-14, (4-phenylphenyl)-quinuclidin-3-yl-methanone] it is 1 to 50 µM.

The same test, now with this note: 20 nM enzyme, 200 μM choline chloride, 400 μM ATP, 25° C.; read-out: IC50 values, Choline Kinase Alpha inhibition.
For the compound `CCN(CC)c1ccc(C(=O)C2CN3CCC2CC3)cc1` (stereo not drawn) [Compound I-2, [4-(diethylamino)phenyl]-quinuclidin-3-yl-methanone], the IC50 fell in the range of 0.1 to 1 µM.
On the same count and under the same terms, the figure for `O=C(c1ccc(N2CCCCC2)cc1)C1CN2CCC1CC2` (stereo not drawn) [Compound I-4, [4-(1-piperidyl)phenyl]-quinuclidin-3-yl-methanone] is 0.1 to 1 µM; for `O=C(Cc1ccccc1)C1CN2CCC1CC2` (stereo not drawn) [Compound I-6, 2-phenyl-1-(quinuclidin-3-yl)ethanone] it is 1 to 50 µM.
In the case of `COc1ccc(C(=O)C2CN3CCC2CC3)cc1` (stereo not drawn) [Compound I-7, (4-methoxyphenyl)-quinuclidin-3-yl-methanone], the IC50 lay within 1 to 50 µM.
On the same count and under the same terms, the figure for `O=C(c1ccc2ccccc2c1)C1CN2CCC1CC2` (stereo not drawn) [Compound I-8, 2-naphthyl(quinuclidin-3-yl)methanone] is 0.1 to 1 µM.
`O=C(c1cccc(F)c1)C1CN2CCC1CC2` (stereo not drawn) [Compound I-9, (3-fluorophenyl)-quinuclidin-3-yl-methanone]: the IC50 is 1 to 50 µM.
The same measure, in the same setting: the figure for `O=C(c1ccc(F)cc1)C1CN2CCC1CC2` (stereo not drawn) [Compound I-10, (4-fluorophenyl)-quinuclidin-3-yl-methanone] is 1 to 50 µM; for `O=C(c1ccc(F)c(Cl)c1)C1CN2CCC1CC2` (stereo not drawn) [Compound I-11, (3-chloro-4-fluoro-phenyl)-quinuclidin-3-yl-methanone] it is 1 to 50 µM; for `COc1cc(OC)cc(C(=O)C2CN3CCC2CC3)c1` (stereo not drawn) [Compound I-12, (3,5-dimethoxyphenyl)-quinuclidin-3-yl-methanone] it is 1 to 50 µM.
Still for that read-out and setting: the figure for `CCCc1ccc(C(=O)C2CN3CCC2CC3)cc1` (stereo not drawn) [Compound I-13, (4-propylphenyl)-quinuclidin-3-yl-methanone] is 0.1 to 1 µM; for `O=C(c1ccc2c(c1)OCO2)C1CN2CCC1CC2` (stereo not drawn) [Compound I-15, 1,3-benzodioxol-5-yl(quinuclidin-3-yl)methanone] it is 1 to 50 µM.
Still for that read-out and setting: the figure for `CCc1ccc(C(=O)C2CN3CCC2CC3)cc1` (stereo not drawn) [Compound I-16, (4-ethylphenyl)-quinuclidin-3-yl-methanone] is 0.1 to 1 µM; for `O=C(c1cccc2ccccc12)C1CN2CCC1CC2` (stereo not drawn) [Compound I-17, 1-naphthyl(quinuclidin-3-yl)methanone] it is 1 to 50 µM; for `O=C(c1cccc(-c2ccccc2)c1)C1CN2CCC1CC2` (stereo not drawn) [Compound I-18, (3-phenylphenyl)-quinuclidin-3-yl-methanone] it is 1 to 50 µM.
`O=C(c1ccc(OC(F)(F)F)cc1)C1CN2CCC1CC2` (stereo not drawn) [Compound I-19, quinuclidin-3-yl-[4-(trifluoromethoxy)phenyl]methanone]: the IC50 was in the range of 1 to 50 µM.
Turning to `CC(C)(C)c1ccc(C(=O)C2CN3CCC2CC3)cc1` (stereo not drawn) [Compound I-20, (4-tert-butylphenyl)-quinuclidin-3-yl-methanone], the IC50 was in the range of 0.1 to 1 µM.
The same measure, in the same setting: the figure for `Cc1cccc(C(=O)C2CN3CCC2CC3)c1C` (stereo not drawn) [Compound I-21, (2,3-dimethylphenyl)-quinuclidin-3-yl-methanone] is 1 to 50 µM.
For the compound `O=C(c1nc2ccccc2s1)C1CN2CCC1CC2` (stereo not drawn) [Compound I-22, benzo[d]thiazol-2-yl(quinuclidin-3-yl)methanone], the IC50 was in the range of 1 to 50 µM.
For the compound `Cc1ccc(Cl)cc1C(=O)C1CN2CCC1CC2` (stereo not drawn) [Compound I-23, (5-chloro-2-methylphenyl)(quinuclidin-3-yl)methanone], the IC50 was in the range of 1 to 50 µM.
Still for that read-out and setting: the figure for `Cc1ncccc1C(=O)C1CN2CCC1CC2` (stereo not drawn) [Compound I-24, (2-methyl-3-pyridyl)-quinuclidin-3-yl-methanone] is 1 to 50 µM.
The same measure, in the same setting: the figure for `CN(C)c1ccc(C(=O)C2CN3CCC2CC3)cc1Br` (stereo not drawn) [Compound I-25, [3-bromo-4-(dimethylamino)phenyl]-quinuclidin-3-yl-methanone] is 0.1 to 1 µM; for `CN(C)c1c(Br)cc(C(=O)C2CN3CCC2CC3)cc1Br` (stereo not drawn) [Compound I-26, [3,5-dibromo-4-(dimethylamino)phenyl]-quinuclidin-3-yl-methanone] it is 1 to 50 µM; for `Cc1cc(C(=O)C2CN3CCC2CC3)ccc1N(C)C` (stereo not drawn) [Compound I-27, (4-(dimethylamino)-3-methylphenyl)(quinuclidin-3-yl)methanone] it is 0.1 to 1 µM.
With `CN1CCN(C)c2cc(C(=O)C3CN4CCC3CC4)ccc21` (stereo not drawn) [Compound I-28, (1,4-dimethyl-2,3-dihydroquinoxalin-6-yl)-quinuclidin-3-yl-methanone], the IC50 lay in the range of 0.1 to 1 µM.
Same read-out and setting: the figure for `CC(O)c1ccc(C(=O)C2CN3CCC2CC3)cc1` (stereo not drawn) [Compound I-29, [4-(1-hydroxyethyl)phenyl]-quinuclidin-3-yl-methanone] is 1 to 50 µM; for `CN1CCc2cc(C(=O)C3CN4CCC3CC4)ccc21` (stereo not drawn) [Compound I-30] it is 0.1 to 1 µM.
The same measure, in the same setting: the figure for `Cc1ccccc1C(=O)C1CN2CCC1CC2` (stereo not drawn) [Compound I-31, o-tolyl(quinuclidin-3-yl)methanone] is 1 to 50 µM; for `Cc1ccc(C(=O)C2CN3CCC2CC3)cc1` (stereo not drawn) [Compound I-32, p-tolyl(quinuclidin-3-yl)methanone] it is 1 to 50 µM.
Take `O=C(c1cccc(Cl)c1)C1CN2CCC1CC2` (stereo not drawn) [Compound I-33, (3-chlorophenyl)-quinuclidin-3-yl-methanone]: the IC50 lay within 1 to 50 µM.
Same read-out and setting: the figure for `O=C(c1ccc(Cl)cc1)C1CN2CCC1CC2` (stereo not drawn) [Compound I-34, (4-chlorophenyl)-quinuclidin-3-yl-methanone] is 1 to 50 µM.
On to `O=C(c1ccccc1)C1CN2CCC1CC2` (stereo not drawn) [Compound I-35, phenyl(quinuclidin-3-yl)methanone], for which the IC50 was 1 to 50 µM.
Same read-out and setting: the figure for `CC(C)c1ccc(C(=O)C2CN3CCC2CC3)cc1` (stereo not drawn) [Compound I-36] is 0.1 to 1 µM.
